Values joined by “and” are separate entries in the source; they are usually repeats but may differ in a detail not shown here. Identical values can stand only once. “Also recorded” adds a separate entry of the source.
Legend:
[1] = tested on: BY4741; test: Metabolite toxicity determined by growth assays; format: cell-based, Saccharomyces cerevisiae; settings: 4 mM of each metabolite, compared to synthetic media only
Procedure: Measurements of cell density (OD600) were taken in 10 min intervals. Each condition was tested in triplicate. For hexanoate growth conditions of aromatic prenyltransferase variants, transformed cells were seeded for 48 hrs and diluted 1:25 in 96-well grow-blocks in media containing 1-5 mM hexanoate. Measurements of cell density were taken in 24 hr intervals using an F500 plate reader. Final screening was performed with 10 mM hexanoate, 1% acetate supplemented synthetic complete media in 50 mL culture volumes.

[2] = target: wild-type CB2 receptor (Homo sapiens, UniProt P34972); settings: Gertsch 2008; cited from earlier work
wild-type CB2 receptor, sequence (P34972 whole entry): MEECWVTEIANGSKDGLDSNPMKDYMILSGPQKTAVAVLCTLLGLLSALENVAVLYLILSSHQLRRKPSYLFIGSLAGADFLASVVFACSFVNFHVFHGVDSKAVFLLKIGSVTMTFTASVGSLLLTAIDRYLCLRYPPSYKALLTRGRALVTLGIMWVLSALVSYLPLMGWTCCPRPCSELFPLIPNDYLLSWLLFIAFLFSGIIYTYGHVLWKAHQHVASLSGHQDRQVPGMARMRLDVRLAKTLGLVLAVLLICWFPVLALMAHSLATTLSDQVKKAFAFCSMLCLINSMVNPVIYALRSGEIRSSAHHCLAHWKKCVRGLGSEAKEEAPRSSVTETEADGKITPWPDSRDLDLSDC

[3] = target: T1, human CB2 receptor (Homo sapiens, UniProt P34972); format: cell-based; settings: exogenously added ligand; GFP or zsGreen1 reporter
T1 construct: expressed in transfected cells; host or cells: Saccharomyces cerevisiae strains JG03-, JG04-, JG05-2.0 (zsGreen1 reporter), high-copy plasmid
T1 sequence (P34972 whole entry): as above
Procedure: The ability of three of strains to couple to the human CB2 receptor expressed on a high-copy number plasmid was tested. Ga subunits that were predicted to couple to the receptor (Shim et al., 2013) were used. The dose-response of 2-arachidonyl glycerol, the native endocannabinoid, in strains differing only in the terminal 5 amino acids of the Gα protein. Control receptors were built that contained stop codons in the middle of the gene. These are referred to as ‘broken’ receptors.
Cells were washed 3 times and resuspended in PBS. Fluorescent (485 nm/515 nm) and cell density (600 nm) measurements were taken on a Cytation 5. Data were plotted and analyzed using SigmaPlot10. For CB2, strains JG03-, JG04-, and JG05-2.0 were transformed and treated the same. Broken receptor (stop codons) were also included in these assays.

[4] = target: T2, 3,5,7-trioxododecanoyl-CoA synthase (OLS) (Cannabis sativa, UniProt B1Q2B6); settings: cited from earlier work
T2 sequence (B1Q2B6 1-385): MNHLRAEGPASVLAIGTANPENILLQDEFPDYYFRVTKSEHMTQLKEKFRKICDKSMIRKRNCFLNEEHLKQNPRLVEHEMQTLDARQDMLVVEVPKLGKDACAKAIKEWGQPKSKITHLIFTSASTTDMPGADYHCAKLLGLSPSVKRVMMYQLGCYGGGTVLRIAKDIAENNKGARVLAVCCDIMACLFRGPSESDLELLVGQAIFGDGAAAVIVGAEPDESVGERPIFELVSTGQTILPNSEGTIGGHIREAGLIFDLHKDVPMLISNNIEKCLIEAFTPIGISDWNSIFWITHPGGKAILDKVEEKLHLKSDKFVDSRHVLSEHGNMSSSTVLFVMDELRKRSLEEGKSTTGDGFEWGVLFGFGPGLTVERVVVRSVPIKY

[5] = target: T3, P2X2 (Homo sapiens, UniProt Q9UBL9); test: Plate-based aequorin luminescence assay of P2X2 expressed in yeast; format: cell-based; parameters: expressed in transfected cells; host or cells: Saccharomyces cerevisiae BY4741 dCne1p, genome-integrated under the GAL1 promoter, aequorin on a high-copy plasmid; settings: for agonism / gating of P2X2: aequorin luminescence; for EC50: dose-response, area under luminescence curve
T3 sequence (Q9UBL9 1-471): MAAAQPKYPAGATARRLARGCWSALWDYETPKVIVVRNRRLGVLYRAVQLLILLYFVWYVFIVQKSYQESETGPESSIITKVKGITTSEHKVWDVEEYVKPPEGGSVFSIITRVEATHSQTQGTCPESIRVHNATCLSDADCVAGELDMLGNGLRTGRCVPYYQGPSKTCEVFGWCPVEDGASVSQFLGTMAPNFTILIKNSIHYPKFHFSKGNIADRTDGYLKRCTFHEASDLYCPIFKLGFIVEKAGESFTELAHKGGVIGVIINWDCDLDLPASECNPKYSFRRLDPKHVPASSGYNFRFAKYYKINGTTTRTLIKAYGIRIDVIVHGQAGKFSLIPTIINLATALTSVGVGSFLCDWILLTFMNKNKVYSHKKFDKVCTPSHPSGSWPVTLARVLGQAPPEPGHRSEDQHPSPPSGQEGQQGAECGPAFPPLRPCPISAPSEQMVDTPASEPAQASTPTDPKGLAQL
Procedure: Ion channel activity in yeast was tested with the purinergic P2X ion channel family. Channel gating was assessed by an aequorin assay in which aequorin is co-expressed with the receptor and, upon addition of the prosthetic group coelenterazine and addition of calcium, blue light is released. The aequorin-based functional assay was performed in all seven P2X receptors (FIG. 8). P2X1-7 were integrated into the chromosome to mitigate copy number variation between clones and were induced with galactose with the pGal1 promoter. […] Among those receptors that didn't work, it was suspected that improvements in expression and trafficking can improve functionality. For example, by modulating trafficking domains within the P2X4 receptor, aggregation was reduced in vesicles (FIG. 9), and it is believed that this tactic can be employed in other receptors. […] This can be because P2X2 has the slowest desensitization rates of the family (and is often considered “non-desensitizing”) and has the highest unitary conductance (30 pS).
To determine whether or not this truncated channel gated in yeast, an aequorin-based functional assay was used. Here aequorin, a bioluminescent protein, emits a photon upon binding calcium. This is done with the aid of coelenterazine, which must be added exogenously to yeast. The reaction is not catalytic, and the off-rate of calcium is too slow to observe on the timescales utilized in our assays. To optimize conditions for expression of both the receptor and reporter, a combination of integration, low-copy, and high-copy vectors was used. At this point, it was only possible to produce a signal upon addition of ATP, the native ligand, when both the receptor and reporter were expressed on high-copy plasmids (FIG. 56).
BY4741ΔCne1p cells were transformed with vectors containing P2X variants. Transformants were validated and made competent for a subsequent transformation with a vector containing aequorin under the expression of the constitutive PGK2 promoter. Overnight cells were induced with 2% […] for 20 hours. Following receptor expression, cells were collected by centrifugation and concentrated to 500 μL. The concentrated cells were then incubated with 5 μL of 1 mg/mL coelenterazine for 30 minutes at room temperature. Washed cells were then resuspended in softening buffer (1 M Sorbitol, 25 mM EDTA, 50 mM DTT), followed by washes in 1 M sorbitol and water. Cells were then resuspended in 50 mM MES/Tris pH 6.5 and aliquoted into a 96-well plate. Using an F500, 25 μL of cells were monitored for luminescence for 5 seconds. Upon addition of ligand or buffer (100 μL), cells were monitored for luminescence for varying times. Cell lysis was performed with the addition of 100 μL Tween20. For inhibition, varying concentrations of suramin were incubated with cells. Luminescence was monitored before and after the addition of 100 μL of 10 μM ATP. Areas under the curve were calculated and plotted against a negative control to determine the IC50.

[6] = target: T4, cannabidiolic acid synthase (CBDA synthase) (Cannabis sativa, UniProt A6P6V9); settings: cited from earlier work
T4 sequence (A6P6V9 29-544): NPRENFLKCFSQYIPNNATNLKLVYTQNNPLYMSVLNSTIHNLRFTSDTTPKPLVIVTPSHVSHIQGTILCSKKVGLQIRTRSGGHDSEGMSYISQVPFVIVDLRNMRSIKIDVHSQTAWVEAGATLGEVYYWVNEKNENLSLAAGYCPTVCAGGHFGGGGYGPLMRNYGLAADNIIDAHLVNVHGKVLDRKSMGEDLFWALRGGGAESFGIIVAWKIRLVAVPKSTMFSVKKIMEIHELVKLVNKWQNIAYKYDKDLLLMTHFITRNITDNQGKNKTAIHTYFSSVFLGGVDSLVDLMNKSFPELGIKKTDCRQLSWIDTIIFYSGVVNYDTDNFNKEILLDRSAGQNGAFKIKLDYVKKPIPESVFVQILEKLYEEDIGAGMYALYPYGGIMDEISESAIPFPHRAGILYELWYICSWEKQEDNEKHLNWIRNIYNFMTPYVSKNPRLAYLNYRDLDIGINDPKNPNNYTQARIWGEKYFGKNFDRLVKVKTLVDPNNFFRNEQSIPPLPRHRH

[7] = target: T5, Tetrahydrocannabinolic acid synthase (THCA synthase) WT (Cannabis sativa, UniProt Q8GTB6); settings: cited from earlier work
T5 sequence (Q8GTB6 29-545): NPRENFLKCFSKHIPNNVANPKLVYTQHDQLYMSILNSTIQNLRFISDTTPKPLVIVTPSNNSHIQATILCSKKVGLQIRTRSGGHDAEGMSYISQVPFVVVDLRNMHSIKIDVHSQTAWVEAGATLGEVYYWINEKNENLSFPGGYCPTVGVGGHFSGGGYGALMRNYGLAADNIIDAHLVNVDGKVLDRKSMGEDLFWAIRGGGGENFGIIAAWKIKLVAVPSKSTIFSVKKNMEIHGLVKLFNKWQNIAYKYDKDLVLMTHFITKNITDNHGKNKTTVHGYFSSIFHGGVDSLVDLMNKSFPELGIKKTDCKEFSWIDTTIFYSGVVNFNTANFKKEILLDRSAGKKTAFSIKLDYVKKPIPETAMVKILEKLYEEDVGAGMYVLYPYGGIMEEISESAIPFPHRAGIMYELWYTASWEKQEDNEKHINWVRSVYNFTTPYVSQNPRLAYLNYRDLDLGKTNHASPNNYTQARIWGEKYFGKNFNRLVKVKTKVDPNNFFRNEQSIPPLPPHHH

[8] = target: T6, CsAAE1 Hexanoyl CoA Synthase (Cannabis sativa, UniProt H9A1V3); settings: cited from earlier work
T6 sequence (H9A1V3 1-720): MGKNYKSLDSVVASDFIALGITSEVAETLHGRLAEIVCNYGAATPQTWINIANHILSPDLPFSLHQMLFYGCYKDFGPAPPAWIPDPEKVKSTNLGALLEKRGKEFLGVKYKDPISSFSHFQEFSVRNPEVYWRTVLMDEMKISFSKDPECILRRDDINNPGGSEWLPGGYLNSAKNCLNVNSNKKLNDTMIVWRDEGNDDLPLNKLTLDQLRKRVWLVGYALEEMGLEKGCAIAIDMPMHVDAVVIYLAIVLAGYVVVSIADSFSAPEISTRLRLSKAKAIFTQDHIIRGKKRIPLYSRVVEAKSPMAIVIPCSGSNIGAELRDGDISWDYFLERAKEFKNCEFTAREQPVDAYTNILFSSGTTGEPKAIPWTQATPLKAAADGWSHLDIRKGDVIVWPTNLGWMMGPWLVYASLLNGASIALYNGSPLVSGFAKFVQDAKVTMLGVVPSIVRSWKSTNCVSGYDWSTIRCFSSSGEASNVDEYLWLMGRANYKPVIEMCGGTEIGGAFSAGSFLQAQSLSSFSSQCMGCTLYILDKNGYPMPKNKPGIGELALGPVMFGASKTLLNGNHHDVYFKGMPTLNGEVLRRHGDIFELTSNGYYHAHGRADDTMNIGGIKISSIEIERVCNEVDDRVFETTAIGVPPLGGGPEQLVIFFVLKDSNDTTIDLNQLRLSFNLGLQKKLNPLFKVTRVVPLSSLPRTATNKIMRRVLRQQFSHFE

CCCCCc1cc(O)cc(O)c1C(=O)O [olivetolic acid]
effect on yeast growth [1]: strongly inhibit growth

C=C1CC/C=C(\C)CC[C@@H]2[C@@H]1CC2(C)C [β-caryophyllene]
detectable level of activation with the wild-type CB2 receptor [2]: 1.9 µM
reporter response of CB2-expressing yeast to ligand [3]: dose-dependent up-regulation of GFP expression; also recorded: responded to high concentration

CCCCCc1cc(O)cc(O)c1 [olivetol]
effect on yeast growth [1]: severely inhibit growth

CCCCCC(=O)SCCNC(=O)CCNC(=O)[C@H](O)C(C)(C)COP(=O)(O)OP(=O)(O)OC[C@H]1O[C@@H](n2cnc3c(N)ncnc32)[C@H](O)[C@@H]1OP(=O)(O)O [Hexanoyl-CoA]
Km [4]: 63.1 µM and 60.8 µM

Nc1nc(Cl)nc2c1ncn2[C@@H]1O[C@H](COP(=O)(O)OP(=O)(O)OP(=O)(O)O)[C@@H](O)[C@H]1O [2-Chloro ATP, 2-Chloro-Adenosinetriphosphate]
agonism / gating of P2X2 [5]: full agonist behavior
EC50 [5]: 26.7 ± 1.5 µM

CCCCCc1cc(O)c(C/C=C(\C)CCC=C(C)C)c(O)c1C(=O)O [CBGA, Cannabigerolic acid]
effect on yeast growth [1]: modest growth defect; also recorded: far less inhibitory
Km [6]: 137 µM
kcat [6]: 0.19 s⁻¹
Km [7]: 134 µM
kcat [7]: .201 s⁻¹

2′(3′)-O-(4-Benzoylbenzoyl)adenosine-5′-triphosphate [BzATP]
amplitude of generated signal lower than either ATP or 2-Cl-ATP [5]: 3 orders of magnitude
duration that the channel remains open, longer [5]: ~10 fold
peak amplitude relative to that achieved with ATP [5]: approximately 20%
agonism / gating of P2X2 [5]: partial agonism
EC50 [5]: 29.1 ± 6 µM

CCCCCC(=O)CC(=O)CC(=O)CC(=O)SCCNC(=O)CCNC(=O)[C@H](O)C(C)(C)COP(=O)(O)OP(=O)(O)OC[C@H]1O[C@@H](n2cnc3c(N)ncnc32)[C@H](O)[C@@H]1OP(=O)(O)O [3,5,7-trioxododecanoyl-CoA]
Km [4]: 56.9 µM
kcat [4]: 0.0577 s⁻¹

CCCCCC(=O)O [Hexanoate, Hexanoic acid]
Km [8]: 3700 µM
kcat [8]: 2.0 s⁻¹
effect on yeast growth [1]: severely inhibit growth
effect on yeast growth ([1]; listed as Hexanoic acid): strongly inhibit growth

Nc1ncnc2c1ncn2[C@@H]1O[C@H](COP(=O)(O)OP(=O)(O)NP(=O)(O)O)[C@@H](O)[C@H]1O [AMP-PNP, adenylyl-imidodiphosphate]
agonism / gating of P2X2 [5]: did not gate P2X2

C=C(C)[C@@H]1CCC(C)=C[C@H]1c1c(O)cc(CCCCC)cc1O [CBD, cannabidiol]
effect on yeast growth [1]: modest growth defect; also recorded: far less inhibitory
